The values below come from patent US5698550A, “Tetralin and chroman derivatives useful in the treatment of asthma, arthritis and related diseases” (Pfizer Inc., priority 1993, dated 1997).

The subject of this assay is PAF-induced lethality in CD1 male mice. Put plainly: PAF lethality assay. The assay is classed as in vivo. Conditions: Mus musculus; positive control; oral dosing 45 minutes before i.v. PAF injection; mortality compared to controls; read-out: approximate ED 50. The method, then:
To evaluate the compounds of the formula (I) in vivo, they are tested by the so-called PAF lethality assay procedure:
Mice: CD1 males, all approximately the same weight (approximately 26 grams), 12 per group.
Vehicle for oral drug dosing: EES (5% ethanol, 5% emulphor, 90% saline). Stored at room temperature.
Drugs: For routine screening at 50 mg/kg, 20 mg drug is dissolved in 4 ml EES, using sonication in a sonicator bath or grinding in a Ten Broeck grinder to dissolve drug if necessary. If solubility is still a problem, the drug is used as a suspension.
Vehicle for i.v. Injection: Saline with 2.5 mg/ml Bovine Serum Albumin (BSA, Sigma #A4378) and 0.05 mg/ml Propranolol (Sigma #P0884). Prepared fresh daily and kept at room temperature.
Platelet Activating Factor (PAF): A […] stock solution is prepared by dissolving 1 mg PAF (Calbiochem #429460) in 0.18 ml ethanol. This is stored at -20° C. and is diluted in vehicle (see above) the day of use. The concentration of PAF used is calibrated so that when injected at 0.1 ml/10 grams body weight, it will kill approximately 80% of untreated controls. This is usually about […] (a 1 to 2034 dilution from stock). […]
45 minutes before PAF injection, mice are treated orally with drug using 0.1 ml/10 grams body weight. […] Results are expressed as percent mortality as compared to controls. […]

The structures appear in SMILES notation.

For the compound `O=C1CCN(c2ccccc2)N1` [Phenidone], the ED50 is roughly 25 mg/kg.
